The values below are quoted from earlier work in patent publication US11485742B2, “2-azaspiro[3.4]octane derivatives as M4 agonists” (NOVARTIS AG, priority 2019, dated 2022).

This data set relates to hyperactivity in mice induced by the stimulant d-amphetamine. The conditions noted are these: general statement on clinically efficacious muscarinic anti-psychotics; cited from earlier work.

Consider `CCCCCCOc1nsnc1C1=CCCN(C)C1` [xanomeline], for which the “activity in the amphetamine induced hyperlocomotion assay” value is “active”.
